Results reported in article PMC4886532, “A highly soluble, non-phototoxic, non-fluorescent blebbistatin derivative” (Scientific Reports, 2016).
≈ marks a conversion by molar mass, not a printed value.

Tests used:
[1] = target: T1, rabbit skeletal muscle myosin S1 (SkS1) (Oryctolagus cuniculus, UniProt Q28641); assay: Steady state actin activated ATPase, SkS1; format: biochemical; conditions: for IC50: 45 μM actin, 25 °C
T1 construct: SkS1 (rabbit skeletal S1 fragment); from tissue; host or cells: rabbit skeletal muscle
T1 sequence (Q28641 1-844 limits assumed): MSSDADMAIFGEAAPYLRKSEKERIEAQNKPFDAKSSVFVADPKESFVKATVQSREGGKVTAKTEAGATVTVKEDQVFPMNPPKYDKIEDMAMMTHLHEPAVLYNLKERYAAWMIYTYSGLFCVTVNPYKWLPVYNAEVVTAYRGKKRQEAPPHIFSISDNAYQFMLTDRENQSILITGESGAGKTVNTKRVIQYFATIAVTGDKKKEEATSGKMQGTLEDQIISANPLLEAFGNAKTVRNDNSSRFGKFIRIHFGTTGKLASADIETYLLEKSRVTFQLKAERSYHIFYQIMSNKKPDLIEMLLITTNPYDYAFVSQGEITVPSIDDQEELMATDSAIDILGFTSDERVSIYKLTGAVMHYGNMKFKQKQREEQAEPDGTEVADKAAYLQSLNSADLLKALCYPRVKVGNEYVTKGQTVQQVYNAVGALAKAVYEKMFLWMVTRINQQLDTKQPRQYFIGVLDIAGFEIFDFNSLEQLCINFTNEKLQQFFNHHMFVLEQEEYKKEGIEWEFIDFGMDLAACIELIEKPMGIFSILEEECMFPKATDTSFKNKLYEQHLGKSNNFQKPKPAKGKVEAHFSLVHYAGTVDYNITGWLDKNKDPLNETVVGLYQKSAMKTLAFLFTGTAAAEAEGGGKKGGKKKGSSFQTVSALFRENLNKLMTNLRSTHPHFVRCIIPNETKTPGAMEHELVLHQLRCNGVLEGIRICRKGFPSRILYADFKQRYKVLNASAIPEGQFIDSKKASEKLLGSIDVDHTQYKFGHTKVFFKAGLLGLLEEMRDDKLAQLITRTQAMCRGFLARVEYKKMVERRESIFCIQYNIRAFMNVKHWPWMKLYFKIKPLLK
T1 sequence (P02602 whole entry partner, the tested form may be a part): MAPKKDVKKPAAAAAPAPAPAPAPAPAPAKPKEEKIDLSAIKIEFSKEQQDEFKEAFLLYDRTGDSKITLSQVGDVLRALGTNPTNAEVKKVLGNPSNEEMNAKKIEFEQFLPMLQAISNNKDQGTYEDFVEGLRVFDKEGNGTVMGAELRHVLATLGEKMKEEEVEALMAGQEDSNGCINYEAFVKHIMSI
Protocol: […]. Myosin and actin together with the indicated concentration of the inhibitor were pre-incubated for 5 minutes at room temperature and the measurements were initiated with 1 mM ATP. Data were corrected for background ATPase activity of actin. G-actin was prepared accordingly from rabbit skeletal muscle[24] and polymerized by 2 mM MgCl2 for 1 hour at room temperature. Measurements were performed in low salt buffer containing 5 mM HEPES, 2 mM MgCl2, 0.1 mM EGTA and 2 mM DTT at pH 7.2 or assay buffer containing 20 mM HEPES, 40 mM NaCl, 4 mM MgCl2 at pH 7.3 for basal ATPase activity measurements with DdMD.

[2] = system: zebrafish skeletal muscle; assay: Fast escape response (C-start), maximal angular velocity; format: in vivo, zebrafish (Danio rerio); conditions: 2 μM
Protocol: (§1) Since the myosin II inhibitors decrease the ATPase activity of SkS1 in vitro, we tested their inhibition on zebrafish skeletal muscle in vivo. We investigated the fast escape response (C-start) reflex of 6 dpf fish evoked by standardized tapping stimuli (Video 1). […] The velocity of the rotating heads of the embryos were quantified (maximal angular velocity) in the absence and in the presence of increasing concentrations of the myosin II inhibitors (2, 5, 10, 20 μM), monitored for 4 hours. The half maximal effective concentration (EC50) values for the inhibition of the maximal angular velocity by the myosin II inhibitors are below 2 μM since even at 2 μM the inhibitory effects were >90% for all inhibitors. We experienced that the inhibitory effect of para-aminoblebbistatin is exerted much slower than that of blebbistatin and para-nitroblebbistatin, probably due to its slower uptake (half inhibitions at […], respectively) (Supplementary Figure 1). To further evaluate the specificity of blebbistatin and its derivatives on different myosin II isoforms, we examined the effect of the inhibitors on 6 dpf (days post fertilization) zebrafish heart muscle in vivo. We monitored heart beating and the amplitude of heart muscle contraction before and after the addition of 20 μM of the inhibitors to the specimens.
(§2) The tapping force was standardized. […] For the cytotoxicity assay, zebrafish embryos were incubated in E3 medium containing 0 μM (Control), 5 μM, 10 μM or 20 μM of para-aminoblebbistatin, para-nitroblebbistatin or blebbistatin in 0.1 vol/vol% final concentration of DMSO and monitored for 70 hours.

[3] = target: T1, rabbit skeletal muscle myosin S1 (SkS1); assay: Steady state basal ATPase, SkS1; format: biochemical; conditions: 25 °C
[4] = system: M2 cells; assay: Inhibition of blebbing (blebbing index) of M2 cells; format: cell-based, human
Protocol: Next, we compared the non-muscle myosin II inhibition by para-aminoblebbistatin, para-nitroblebbistatin and blebbistatin in human melanoma (M2) and HeLa cells. As blebbistatin acquired its name from its ability to block blebbing of M2 cells, we compared blebbing indices[17] of M2 cells in time, incubated in the three different myosin II inhibitors at different concentrations (Fig. 3c–e). Even 5 μM concentrations of the myosin II inhibitors achieved significant decrease in the blebbing indices of the cells within an hour, whereas higher concentrations of the inhibitors completely stopped blebbing of the cells within >40–60 minutes (10 μM) or >20 minutes (25 and 50 μM).
For blebbing index determination, M2 cells were incubated for 30 minutes in PBS in every case prior to the addition of inhibitors, in order to initiate extensive blebbing. Blebbing of the cells was monitored before as well as after inhibitor addition to the cells. DMSO concentration was 0.1 vol/vol% in all experiments. Blebbing index was calculated by summing the initiated blebs in a 5-minute interval (starting at the indicated time points) on a given standard area[17] (whole cells with similar size, diameter = 12 ± 1 μm) and normalizing it to the blebbing index prior to inhibitor treatment.

[5] = system: cldnb:gfp zebrafish embryos; assay: Posterior lateral line primordium (pLLp) migration; format: in vivo, zebrafish (Danio rerio); conditions: 20 μM, 24 hours of incubation
Protocol: However, the highly fluorescent, dense precipitates of blebbistatin disturb imaging in the GFP channel of the microscope. […] In this experiment, cldnb:gfp zebrafish embryos were imaged by an epifluorescent microscope after 24 hours of incubation in the presence of 20 μM concentrations of the indicated inhibitors (Fig. 4d) in order to detect the effect of myosin II inhibition on the proliferating leading edge of the posterior lateral line primordium (pLLp)[21] and visualize the effect of the precipitates by epifluorescent microcopy. […] In the case of para-aminoblebbistatin treatment, the GFP signal of the migrating pLLp can be visualized clearly, while the precipitates of the two other inhibitors highly disturbed the imaging.

[6] = system: zebrafish heart muscle; assay: Heart beating and amplitude of heart muscle contraction; format: in vivo, zebrafish (Danio rerio); conditions: 20 μM, 6 dpf
Protocol: as §1, §2

[7] = system: HeLa cells; assay: Wound healing assay (cell motility); format: cell-based, human; conditions: 20 μM, 24 hours, uncoated glass; 100% = total diameter of the wound; control 30.6 ± 5.4%
Protocol: For wound healing assays, 200 μl of HeLa cells were plated on 35 mm borosilicate glass imaging dishes at 300,000 cells/ml concentrations and incubated for 24 hours. 1 hour prior to wounding, cells were incubated in 20 μM of the different myosin II inhibitors. After one hour, scratches were made with pipette tips in monolayer cultures and the motility of cells for occupying the wound was monitored for 24 hours with a Foculus Digital Camera (IEEE1394). Analysis of cell motility was carried out by ImageJ, by measuring the distance between two lines fitted on the two sides of the approaching cell edges created by the pipette tips.

[8] = Solubility assays in assay buffer (supernatant concentration after centrifugation); conditions: for Solubility: room temperature
Protocol: 50 μM of the inhibitors were dissolved in assay buffer (see Experimental Procedures) containing 0.1 or 1 vol/vol% DMSO, centrifuged at the indicated times and the concentration of the supernatants were determined at each time point (Fig. 2a,b).
The DMSO content was 1%. […] The experiments were repeated three times.

Row | SMILES | IC50 [1] [nM] | Half inhibition time of maximal angular velocity [2] [h] | IC50 [3] [nM] | Time constant τ of inhibition of blebbing ([4]; 5 μM) [min] | Time constant τ of inhibition of blebbing ([4]; 10 μM) [min] | Time constant τ of inhibition of blebbing ([4]; 25 μM) [min] | Effect on pLLp migration [5] | Time within which amplitude of contraction and blood circulation dropped drastically [6] | Relative migration of HeLa cells [7] [%] | Solubility ([8]; 0.1 vol/vol% DMSO in assay buffer) [µM] | Solubility ([8]; 1 vol/vol% DMSO in assay buffer) [µM] | Solubility in aqueous buffer ([8]; abstract statement) | Time to drop to half concentration (precipitation kinetics) ([8]; freshly prepared 50 μM sample) [min] | Equilibrium saturation concentration ([8]; reached in two hours from 50–100 μM) [µM] | Fold higher IC50 of AmBleb on SkS1 ([1]; comparator not named (matches ratio to Bleb)) [times] | Time constant τ of inhibition of blebbing ([4]; 50 μM) [min] | Concentration at which stable solutions are formed [8]
1 | Cc1ccc2c(c1)C(=O)C1(O)CCN(c3ccccc3)C1=N2 (centres unmarked) [blebbistatin] | 110 ± 9 | 0.6 | 300 ± 30 | 24.6 ± 2 | 10.5 ± 0.8 | 5.4 ± 1 | halted pLLp migration | within the first hour | 51.4 ± 4.7 | 10.9 ± 0.9 (≈ 3.19 µg/mL) | 9.3 ± 0.7 (≈ 2.72 µg/mL) | below 10 micromolar | < 20 | 9 |  |  | 
2 | Cc1ccc2c(c1)C(=O)[C@]1(O)CCN(c3ccc(N)cc3)C1=N2 [para-aminoblebbistatin] | 470 ± 60 | 3.2 | 1300 ± 100 | 25.0 ± 4.3 | 16.8 ± 1.6 | 9.9 ± 0.3 | halted pLLp migration | within three hours | 62.6 ± 3.6 |  |  |  |  |  | 4.3 | 7.8 ± 0.3 | over 100 μM
